Some test systems named below: M14; OVCAR-5; HCT-15; SF-539; MOLT-4; LOX IMVI; HOP-62; KM12; TK-10; HT-29; SK-OV-3; NCI-H23; CAKI-1; CCRF-CEM; UACC-257; ACHN; K562; HCT-116; DU-145; T47D.
Common to all, as to assay: growth of human tumour cells (NCI), 48 h

Each structure is given as a SMILES string.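 48-hour exposure; five concentrations; linearly interpolated endpoints. Here, GI50 denotes the concentration required for 50% inhibition of growth.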 The source made the active and inactive calls. No stated cut-off is given here; in the data, active = GI50 up to about 1.1 µM and inactive = higher.

In the case of `O=C1C[C@@H]2[C@@H](C=CC23CCCC3)N1O`, the GI50 in the experiment with M14 was > 100 µM (inactive); with OVCAR-5 it was > 100 µM (inactive); in the experiment with HCT-15, over 100 µM; in the experiment on SF-539, > 100 µM (inactive); in the experiment on MOLT-4, > 100 µM (inactive); with LOX IMVI, > 100 µM (inactive). The GI50 in the experiment on HOP-62, with KM12, with TK-10, with HT-29, in the experiment on SK-OV-3 and in the experiment with NCI-H23 was > 100 µM (inactive) in each case. Besides, the GI50 in the experiment on CAKI-1, with CCRF-CEM, with UACC-257, in the experiment with ACHN, in the experiment with K562 and in the experiment on HCT-116 was > 100 µM (inactive) in each case.

With `NC(CCCCO)C(=O)O` (configuration not stated), the GI50 in the experiment on M14 was > 100 µM (inactive); with OVCAR-5, > 100 µM (inactive); in the experiment with HCT-15, over 100 µM; in the experiment with LOX IMVI, > 100 µM (inactive); in the experiment with HOP-62 it was > 100 µM (inactive); in the experiment with KM12, > 100 µM (inactive). Besides, the GI50 with TK-10, in the experiment with HT-29, in the experiment on DU-145, with SK-OV-3, in the experiment on NCI-H23 and in the experiment on CAKI-1 was > 100 µM (inactive) each time. Further, the GI50 in the experiment with CCRF-CEM, in the experiment with T47D, in the experiment with UACC-257, in the experiment on ACHN and in the experiment on K562 was > 100 µM (inactive) each time.

Turning to `NC(=O)SCC(=O)Nc1ccc2ncccc2c1`, the GI50 in the experiment with M14 is > 100 µM (inactive); in the experiment on OVCAR-5, > 100 µM (inactive); in the experiment on HCT-15, 55.1 µM; in the experiment on SF-539, 28.1 µM (inactive); with LOX IMVI it was 31.6 µM (inactive); in the experiment on HOP-62 it was > 100 µM (inactive). The GI50 is 45.4 µM (inactive) with KM12; 54.7 µM (inactive) in the experiment on TK-10; > 100 µM (inactive) in the experiment with HT-29; > 100 µM (inactive) in the experiment on SK-OV-3; > 100 µM (inactive) in the experiment with NCI-H23; > 100 µM (inactive) in the experiment with CAKI-1. The GI50 in the experiment with CCRF-CEM is 29.6 µM (inactive); in the experiment with UACC-257 it was 71.3 µM (inactive); in the experiment with ACHN, > 100 µM (inactive); in the experiment with K562, 36.1 µM (inactive); in the experiment on HCT-116 it was > 100 µM (inactive).

For the compound `COC(=O)C1=C(C(=O)OC)C23CC1C1C(C(=O)OC)=C(C(=O)OC)C12C1C=CC3C2C(=O)OC(=O)C21` (configuration not stated), the GI50 with M14 was 41.3 µM (inactive); in the experiment on OVCAR-5, > 100 µM (inactive); in the experiment on HCT-15, 42.1 µM; in the experiment with SF-539 it was 23.7 µM (inactive); in the experiment on MOLT-4, 38.6 µM (inactive); with HOP-62, > 100 µM (inactive). In addition, the GI50 with KM12 is 31 µM (inactive); with TK-10, > 100 µM (inactive); in the experiment on HT-29, 68.7 µM (inactive); in the experiment on NCI-H23, 37.8 µM (inactive); in the experiment with CCRF-CEM, 40.4 µM (inactive); in the experiment with UACC-257, 45.2 µM (inactive). Moreover, the GI50 in the experiment on ACHN is 53.5 µM (inactive); in the experiment on K562, 24 µM (inactive); in the experiment with HCT-116, 37.7 µM (inactive).

Regarding `O=S(O)CCCCCSSSCCCCCS(=O)O`, the GI50 with M14 is 43.7 µM (inactive); in the experiment on OVCAR-5 it was 85.5 µM (inactive); in the experiment with SF-539 it was 84.3 µM (inactive); in the experiment on MOLT-4 it was 4.81 µM (inactive); with LOX IMVI, 27.1 µM (inactive); in the experiment with HOP-62 it was > 100 µM (inactive). Besides, the GI50 in the experiment with KM12 is > 100 µM (inactive); with TK-10, 29 µM (inactive); in the experiment on HT-29 it was > 100 µM (inactive); in the experiment on SK-OV-3, > 100 µM (inactive); in the experiment with NCI-H23 it was 29.8 µM (inactive); in the experiment on CCRF-CEM, 6.59 µM (inactive). Moreover, the GI50 was 24.5 µM (inactive) with UACC-257, > 100 µM (inactive) with ACHN, 14.6 µM (inactive) with K562 and 15.5 µM (inactive) with HCT-116.

On to `CC(C)OP(=O)(OC(C)C)/C(=N/Nc1ccc([N+](=O)[O-])cc1)Nc1ccc(N/C(=N\Nc2ccc([N+](=O)[O-])cc2)P(=O)(OC(C)C)OC(C)C)cc1`, for which the GI50 with M14 was 14.5 µM (inactive); in the experiment with OVCAR-5, 71.8 µM (inactive); with HCT-15 it was 6.21 µM; with SF-539, 57.3 µM (inactive); in the experiment with MOLT-4, 2.58 µM (inactive); in the experiment with LOX IMVI, 12.8 µM (inactive). The GI50 in the experiment on HOP-62 was > 100 µM (inactive); with KM12, 7.93 µM (inactive); in the experiment with TK-10, 89.9 µM (inactive); in the experiment with NCI-H23, 13.7 µM (inactive); in the experiment with CAKI-1, 32.8 µM (inactive); in the experiment with CCRF-CEM, 2.95 µM (inactive). Besides, the GI50 with UACC-257 is 37.2 µM (inactive); in the experiment with ACHN it was 23.4 µM (inactive); in the experiment with K562, 4.79 µM (inactive); in the experiment on HCT-116 it was 4.15 µM (inactive).

Consider `[O-][N+]1=C2CCC/C(=N/O)C2(O)C2CCCCC21N1CCOCC1` (configuration not stated), for which the GI50 in the experiment on M14 was > 100 µM (inactive); in the experiment on OVCAR-5, > 100 µM (inactive); in the experiment on HCT-15 it was over 100 µM; with SF-539 it was > 100 µM (inactive); in the experiment on MOLT-4, > 100 µM (inactive); in the experiment with LOX IMVI, > 100 µM (inactive). Further, the GI50 with HOP-62, in the experiment with KM12, in the experiment with TK-10, with HT-29, with SK-OV-3 and in the experiment with NCI-H23 was > 100 µM (inactive) throughout. Also, the GI50 in the experiment on CAKI-1, with CCRF-CEM, in the experiment with T47D, in the experiment on UACC-257, in the experiment on ACHN and in the experiment with K562 was > 100 µM (inactive) each time. For the same compound, the GI50 in the experiment with HCT-116 is > 100 µM (inactive).

Take `COc1ccc2nc(-c3ccc(N)cc3)sc2c1`: the GI50 in the experiment with M14 was > 100 µM (inactive); in the experiment on OVCAR-5, > 100 µM (inactive); with HCT-15, 50.5 µM; with SF-539 it was > 100 µM (inactive); in the experiment with MOLT-4 it was 13.6 µM (inactive); in the experiment with HOP-62 it was 42.2 µM (inactive). Further, the GI50 in the experiment with KM12 is 22.3 µM (inactive); in the experiment with TK-10, > 100 µM (inactive); in the experiment on HT-29, 66.5 µM (inactive); in the experiment on SK-OV-3, > 100 µM (inactive); in the experiment with NCI-H23, > 100 µM (inactive); in the experiment with CAKI-1, > 100 µM (inactive). In addition, the GI50 is 4.89 µM (inactive) in the experiment with CCRF-CEM; > 100 µM (inactive) in the experiment with UACC-257; 51.6 µM (inactive) in the experiment on ACHN; > 100 µM (inactive) with K562; > 100 µM (inactive) with HCT-116.

Take `C[C@@]12[Se]c3ccccc3[C@]1(C)[Se]c1ccccc12`: the GI50 in the experiment on M14 was > 100 µM (inactive); in the experiment on OVCAR-5, > 100 µM (inactive); with LOX IMVI, 5.89 µM (inactive); with KM12, 6.95 µM (inactive); in the experiment on TK-10 it was > 100 µM (inactive); with HT-29 it was 3.79 µM (inactive). The GI50 is > 100 µM (inactive) with NCI-H23; > 100 µM (inactive) in the experiment on CAKI-1; 4.39 µM (inactive) in the experiment on CCRF-CEM; > 100 µM (inactive) with ACHN; 4.17 µM (inactive) in the experiment on K562; > 100 µM (inactive) in the experiment with HCT-116.

For the compound `C=C1C(=O)O[C@@H]2[C@H](O)[C@@H](C)[C@@H]3C=CC(=O)[C@@]3(C)[C@H](OC(=O)C=C(C)C)[C@H]12`, the GI50 with OVCAR-5 was 2.52 µM (inactive); with HCT-15, 0.242 µM; in the experiment with SF-539, 0.255 µM (active); with MOLT-4, 0.345 µM (active); in the experiment with LOX IMVI, 0.457 µM (active); with HOP-62 it was 4.35 µM (inactive). In addition, the GI50 in the experiment with KM12 is 1.91 µM (inactive); in the experiment with HT-29, 1.26 µM (inactive); in the experiment on SK-OV-3 it was 3.57 µM (inactive); in the experiment with NCI-H23 it was 1.35 µM (inactive); in the experiment with CAKI-1 it was 0.536 µM (active); with CCRF-CEM it was 0.183 µM (active). Further, the GI50 in the experiment on UACC-257 is 1.59 µM (inactive); in the experiment with K562, 0.199 µM (active); in the experiment on HCT-116 it was 0.655 µM (active).

Take `CCCCCCCCCCCCCCCCCCOP(=O)([O-])OCC[N+](C)(C)C` [OCTADECYLPHOSPHONOCHOLINE]: the GI50 in the experiment with OVCAR-5 was 1.53 µM (inactive); with HCT-15 it was 0.644 µM; in the experiment on SF-539 it was 1.2 µM (inactive); in the experiment on MOLT-4 it was 0.295 µM (active); with LOX IMVI, 0.863 µM (active); in the experiment with HOP-62, 0.301 µM (active). The GI50 in the experiment on KM12 was 0.273 µM (active); with HT-29, 0.608 µM (active); in the experiment on SK-OV-3 it was 5.69 µM (inactive); in the experiment on NCI-H23 it was 1.13 µM (inactive); in the experiment with CAKI-1 it was 0.321 µM (active); in the experiment with CCRF-CEM, 0.366 µM (active). Further, the GI50 in the experiment with T47D is < 0.0209 µM (active); in the experiment on UACC-257, 1.19 µM (inactive); with ACHN, < 0.0488 µM (active); with K562, 0.957 µM (active); with HCT-116 it was 0.826 µM (active).

Regarding `Oc1c(C(Nc2cccc3cccnc23)c2ccccc2)ccc2cccnc12` (configuration not stated), the GI50 in the experiment on OVCAR-5 was 12.9 µM (inactive); with SF-539, 3.65 µM (inactive); with MOLT-4 it was 1.9 µM (inactive); in the experiment on LOX IMVI, 3.94 µM (inactive); in the experiment on HOP-62, 9.64 µM (inactive); in the experiment on KM12, 7.41 µM (inactive). Also, the GI50 in the experiment on NCI-H23 was 5.43 µM (inactive); in the experiment on CAKI-1, 5.6 µM (inactive); with CCRF-CEM it was 1.57 µM (inactive); in the experiment with UACC-257, 4.38 µM (inactive); in the experiment on ACHN it was 3.91 µM (inactive); in the experiment on K562, 3.32 µM (inactive). In addition, the GI50 in the experiment on HCT-116 is 5.6 µM (inactive).

(Values after ChEMBL document CHEMBL1201862, “PubChem BioAssay data set” (2004).)
